Assays:
[1] = system: plasma renin; assay: Inhibition of plasma renin activity (PRA) after oral administration to sodium-depleted cynomolgus monkeys; type: in vivo, cynomolgus monkeys (Macaca fascicularis); details: sodium-depleted conscious monkeys, 0-6 hours
Experimental: (§1) Male or female cynomolgus monkeys (Macaca fascicularis) weighing about 2.5-3.5 kg were used. Sodium depletion was achieved by administering furosemide, 15 mg/kg subcutaneously one day before and then 10 mg/kg intravenously 30 minutes before the administration of the test compound.
(§2) Test compounds were dissolved in diluted equimolar hydrochloric acid (pH 5-6) and orally administered to conscious and trained monkeys placed in restraining chairs with pneumatic cuff positioned around the arm for oscillometric measurement of mean arterial blood pressure (MAP) (Model BP-203 NPJ, manufactured by Nippon Colin).
Blood samples were collected at 0, 0.5, 1, 2, 4 and 6 hours after dosing from the antecubital vein of the monkey into disodium salt of EDTA coated tubes, centrifuged for 10 min. (3000 rpm, 4° C.) and plasma was obtained for determination of plasma renin activity (PRA). PRA was measured as the rate of Ang I formation with the same principle as illustrated in Test 1. 100 μl of sample plasma was mixed with 100 μl of the solution of angiotensinase inhibitors (3 mM 8-hydroxyquinoline sulfate and 5 mM 2,3-dimercaptopropanol, SB-REN-1, SORIN BIOMEDICA, Italy). Half (100 μl) of the mixture was incubated at 37° C. for one hour and Ang I formed was determined by a commercial RIA kit (DINABOTT). The remaining half (100 μl) of the reaction mixture was kept at 4° C. for one hour to measure and correct for the preexisting Ang I in the plasma. Percentage inhibition of PRA was calculated by the following formula: [formula]
A37 : the amount of angiotensin I formed by incubation at 37° C. of plasma collected before dosing the test compound
A4 : the amount of angiotensin I formed by keeping at 4° C. of plasma collected before dosing the test compound
D37 : the amount of angiotensin I formed by incubation at 37° C. of plasma collected after dosing the test compound
D4 : the amount of angiotensin I formed by keeping at 4° C. of plasma collected after dosing the test compound.

[2] = target: T1, renin (Homo sapiens, UniProt P00797); assay: Inhibition of human plasma renin activity (angiotensin I formation, RIA); type: biochemical; details: endogenous renin and angiotensinogen, pH 6.0, 37° C, 90 minutes, RIA of Ang I
T1 construct: endogenous renin and angiotensinogen in plasma; from tissue; host or cells: pooled human plasma (EDTA) from male volunteers
T1 sequence (P00797 67-406): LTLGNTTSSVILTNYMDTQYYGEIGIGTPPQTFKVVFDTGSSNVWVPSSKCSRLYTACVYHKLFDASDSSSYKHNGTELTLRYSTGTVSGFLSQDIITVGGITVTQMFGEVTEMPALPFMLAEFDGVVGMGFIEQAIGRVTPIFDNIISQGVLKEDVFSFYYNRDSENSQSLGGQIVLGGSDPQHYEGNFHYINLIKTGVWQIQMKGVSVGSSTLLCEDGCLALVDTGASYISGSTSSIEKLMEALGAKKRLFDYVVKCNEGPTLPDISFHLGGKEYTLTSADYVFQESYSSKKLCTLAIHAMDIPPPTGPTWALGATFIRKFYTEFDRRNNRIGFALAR
Experimental: Human plasma was collected from male volunteers pretreated with no drugs and used as a pool. Disodium salt of ethylenediaminetetraacetic acid (EDTA) was used as the anticoagulant. Plasma renin activity was measured as the rate of angiotensin I (Ang I) formation after incubation (37° C) of the endogenous renin and angiotensinogen in plasma at pH 6.0. The incubation mixture contained 250 μl of plasma, 5 μl of (phenylmethyl)sulfonyl fluoride, 30 μl of buffer (sodium, potassium-phosphate, pH 6.0), and 15 μl of an appropriate concentration of test compound in 50% ethyl alcohol-water vehicle. The Ang I formed after 90 minutes of incubation was measured by radioimmunoassay (RIA) which was carried out with a commercial kit, RENCTK 100 (manufactured by Commissariat A L'energic Atomique). Samples were incubated in duplicate and each tube was measured in duplicate in the RIA. Percentage inhibition of plasma renin activity was calculated by comparing the amount of Ang I produced with and without a test compound. The concentration of test compound that inhibited plasma renin activity by 50% (IC50) was determined by Probit method.

[3] = system: mean arterial blood pressure (MAP); assay: Hypotensive effect after oral administration to conscious sodium-depleted cynomolgus monkeys (maximum percentage fall of MAP); type: in vivo, cynomolgus monkeys (Macaca fascicularis); details: 0-6 hours
Experimental: as §1, §2
The Map was measured at 0 (predosing base line), 0.5, 1, 2, 3, 4 and 6 hours after administration of the test compound. The maximum hypotensive effect was calculated as the maximum percentage fall of MAP from the pretreatment value.

IC50 [2] | SMILES | Maximum inhibition of PRA (%) ([1]; 3.2 mg/kg (po)) | Maximum hypotensive effect (%) ([3]; 3.2 mg/kg (po)) | Maximum inhibition of PRA (%) ([1]; 32 mg/kg (po)) | Maximum hypotensive effect (%) ([3]; 32 mg/kg (po))
4 nM | CC(C)CC[C@H](O)[C@H](CC1CCCCC1)NC(=O)[C@H](Cc1c[nH]cn1)N(C)C(=O)[C@H](Cc1ccccc1)OC(=O)N(C)CCN(C)C(=O)N1CCOCC1 [(23)] | 99% | 19% |  | 
25 nM | CC(C)CC[C@H](O)[C@H](CC1CCCCC1)NC(=O)[C@H](Cc1c[nH]cn1)N(C)C(=O)[C@H](Cc1ccccc1)OC(=O)N(C)CCC(=O)N1CCOCC1 [(5)] |  |  | 92% | 18%
8.7 nM | CC(C)CC[C@H](O)[C@H](CC1CCCCC1)NC(=O)[C@H](Cc1c[nH]cn1)N(C)C(=O)[C@H](Cc1ccccc1)OC(=O)N(C)CCN(C)C(=O)C(C)C [(24)] | 93% | 15% |  | 

Source: patent US4921855A, “New Histidyl amino acid derivatives, and pharmaceutical composition comprising the same” (Fujisawa Pharmaceutical Co., Ltd., priority 1987, dated 1990)
